Reference: patent publication US20210078972A1, “QUINOLINE OR QUINAZOLINE COMPOUND AND APPLICATION THEREOF” (HAIHE BIOPHARMA CO., LTD., priority 2018, published 2021)

What was measured:
[1] = target: T1, AXL kinase domain recombinant protein (Homo sapiens, UniProt P30530); test: AXL kinase inhibition, ELISA; format: biochemical; details: ATP 5 μM
T1 construct: the AXL kinase domain recombinant protein (eurofins, 14-512); purchased eurofins 14-512
T1 sequence (P30530 536-807 limits assumed): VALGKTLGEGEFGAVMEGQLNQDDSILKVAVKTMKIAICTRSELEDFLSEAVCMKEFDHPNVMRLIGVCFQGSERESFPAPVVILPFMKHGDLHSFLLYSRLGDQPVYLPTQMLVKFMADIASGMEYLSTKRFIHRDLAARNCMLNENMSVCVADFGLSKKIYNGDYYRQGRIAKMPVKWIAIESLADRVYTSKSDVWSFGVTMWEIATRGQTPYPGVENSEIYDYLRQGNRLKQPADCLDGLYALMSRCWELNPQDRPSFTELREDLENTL
Experimental: Detection of the activity of kinase: Enzyme-linked immunosorbent assay (ELISA) technology was used to detect the inhibitory activities of the compounds against the kinase. […] After the liquid in the well was discarded, the plate was washed three times with T-PBS (PBS containing 0.1% Tween-20), 200 μL T-PBS per well, 5 minutes for each time. The enzyme label plate was dried in an oven at 37° C. for 1-2 hours. To each well was added 50 μL of ATP solution diluted with reaction buffer (50 mM HEPES, pH 7.4, 50 mM MgCl2, 0.5 mM MnCl2, 0.2 mM Na3VO4, 1 mM DTT) with a final concentration of 5 μM. […] Two wells with no enzyme for control are required for each experiment. The plate was incubated on a shaker (100 rpm) at 37° C. and reacted for 1 hour. The plate was washed three times with T-PBS. 100 μ/well of primary antibody PY99 dilution was added and the plate was reacted in a shaker at 37° C. for 0.5 hour. The plate was washed three times with T-PBS. 100 μ/well of secondary antibody horseradish peroxidase-labeled goat anti-mouse IgG dilution was added and the plate was reacted in a shaker at 37° C. for 0.5 hour. The plate was washed three times with T-PBS. 2 mg/ml of OPD color solution was added with 100 μ/well (diluted with 0.1 M citric acid-sodium citrate buffer (pH=5.4) containing 0.03% H2O2), and the plate was reacted at 25° C. in the dark for 1-10 minutes. (Ultrasound is required for the dissolution of OPD, and the color solution needs to be prepared for immediate use). 50 μ/well of 2 M H2SO4 was added to stop the reaction, and the wavelength-adjustable enzyme-labeling instrument SPECTRA MAX 190 was used to read the data at a wavelength of 490 nm.
The inhibition rate of the sample was obtained by the following formula: […]
The IC50 values were obtained by regression with the four-parameter method using the software attached to the enzyme-labeling instrument.

[2] = test system: Mixed primary macaca fascicularis hepatocytes; test: Metabolism in monkey hepatocytes, UPLC-UV/Q-TOF MS; format: in vitro ADME; details: 180 min
Experimental: (§1) In this example, a UPLC-UV/Q-TOF MS method was used to evaluate the differences in the metabolic processes of TL134 in hepatocytes of five species of human, monkey, canine, rat, and mouse.
(§2) The total volume of each incubation sample was 100 μL, the medium was WME medium (pH 7.4), and the incubation sample included hepatocytes with a cell density of 1.0×10^6 cells/mL and TL134 with a final concentration of 3.0 μM; the negative control sample was incubated with thermal-inactivated mixed hepatocytes (without cell counting) of five species of animals and TL134, and the buffer control sample was incubated with WME medium and TL134. All samples were incubated at 37° C. for 180 min, and then 100 μL of ice-cold acetonitrile was added to stop the reaction. The samples were stored at −70° C. for ready to be tested, and all incubation samples were double samples.
(§3) Triple TOF 5600′ quadrupole-time-of-flight tandem mass spectrometer (Q-TOF MS), equipped with electrospray ionization source (ESI source) and CDS automatic calibration system, AB SCIEX Company, USA; Acquity UPLC liquid chromatography system, including binary infusion pump, autosampler, column oven, degasser and TUV ultraviolet detector, Waters Company, USA. […]

[3] = test system: Mixed primary human hepatocytes; test: Metabolism in human hepatocytes, UPLC-UV/Q-TOF MS; format: in vitro ADME; details: 180 min
Experimental: as §1, with “mouse. It provides a reference for the selection of preclinical pharmacokinetics and studies on animal species safety evaluation.” for “mouse.”
as §2, §3

[4] = test system: Mixed primary male CD-1 mouse hepatocytes; test: Metabolism in mouse hepatocytes, UPLC-UV/Q-TOF MS; format: in vitro ADME; details: 180 min
Experimental: as §1, with “mouse. It provides a reference for the selection of preclinical pharmacokinetics and studies on animal species safety evaluation.” for “mouse.”
as §2, §3

Structure (SMILES) | IC50 [1] | prototype drug metabolized, judging from the UV chromatographic peak areas [2] | prototype drug metabolized, judging from the UV chromatographic peak areas [3] | prototype drug metabolized, judging from the UV chromatographic peak areas [4]
CCc1ccc2c(c1)c(=O)c(C(=O)Nc1ccc(Oc3ncnc4cc(OCCCN5CCOCC5)c(OC)cc34)c(F)c1)c(C)n2C [GDL5000123, 6-ethyl-N-(3-fluoro-4-((6-methoxy-7-(3-morpholinopropoxy)quinazolin-4-yl)oxy)phenyl)-1,2-dime thyl-4-oxo-1,4-dihydroquinoline-3-carboxamide, reference compound] | 1.2 nM | approximately 41.3% |  | 
COc1cc2c(Oc3ccc(NC(=O)c4c(C)n(C)c5ccc(OC(F)(F)F)cc5c4=O)cc3F)ncnc2cc1OCCCN1CCOCC1 [TL-134, N-(3-fluoro-4-((6-methoxy-7-(3-morpholinopropoxy)quinazolin-4-yl)oxy)phenyl)-1,2-dim ethyl-4-oxo-6-(trifluoromethoxy)-1,4-dihydroquinoline-3-carboxamide] | 1.1 nM | ~4.6% | approximately 17.8% | ~3.0%
